From ChEMBL document CHEMBL4004890, “RITA Mimics: Synthesis and Mechanistic Evaluation of Asymmetric Linked Trithiazoles” (2017)
Values belong to the compound of their own block, whether it stands above or below them. Activity calls are given as the source filed them. No cut-off for these calls is given here.

How the values were obtained:
HCT-116 [1] = experiment: Growth inhibition of human HCT116 cells at 10 uM after 24 hrs by CCK8 assay relative to control; assay type: functional
CCRF-CEM = experiment: Antiproliferative activity against human CCRF-CEM cells; assay type: functional
HCT-116 [2] = experiment: Growth inhibition of human HCT116 cells after 24 hrs by CCK8 assay; assay type: functional; conditions: HCT-116, 24 h
HCT-116 [3] = experiment: Induction of apoptosis in human HCT116 cells at 1 uM after 24 hrs by Annexin-V-FITC/7AAD staining based flow cytometry; assay type: functional, cell-based
HCT-116 [4] = experiment: Induction of apoptosis in human HCT116 cells at 10 uM after 24 hrs by Annexin-V-FITC/7AAD staining based flow cytometry; assay type: functional, cell-based
HCT-116 [5] = experiment: Upregulation of p53 expression in human HCT116 cells at 1 uM at 6 hrs post dose by chemiluminescent immunoblotting; assay type: functional, cell-based
HCT-116 [6] = experiment: Upregulation of p53 expression in human HCT116 cells at 10 uM at 12 hrs post dose by chemiluminescent immunoblotting; assay type: functional, cell-based
HCT-116 [7] = experiment: Down regulation of c-Myc expression in human HCT116 cells at 1 uM after 6 hrs by chemiluminescent immunoblotting; assay type: functional, cell-based
HCT-116 [8] = experiment: Down regulation of c-Myc expression in human HCT116 cells at 10 uM after 6 to 24 hrs by chemiluminescent immunoblotting; assay type: functional, cell-based
HCT-116 [9] = experiment: Down regulation of c-Myc expression in human HCT116 cells at 1 uM after 12 to 24 hrs by chemiluminescent immunoblotting; assay type: functional, cell-based
HCT-116 [10] = experiment: Down regulation of Mcl-1 expression in human HCT116 cells at 1 to 10 uM after 6 to 24 hrs by chemiluminescent immunoblotting; assay type: functional, cell-based
HCT-116 [11] = experiment: Antiproliferative activity against human HCT116 cells; assay type: functional
K562 = experiment: Antiproliferative activity against human K562 cells; assay type: functional

Structure (SMILES): CCOC(=O)c1csc(-c2csc(-c3csc([C@H](N)Cc4ccccc4)n3)n2)n1
growth inhibition (GI) (HCT-116 [1]): inactive

GI50 (CCRF-CEM): 250 nM
Structure (SMILES): CN[C@@H](C)C(=O)N[C@H](C(=O)N1CCC[C@H]1c1nc(C(=O)c2ccc(F)cc2)cs1)C1CCCCC1 [LCL-161]

GI50 (HCT-116 [2]): 800 nM
GI50 (HCT-116 [11]): 110 nM
Structure (SMILES): OCc1ccc(-c2ccc(-c3ccc(CO)s3)o2)s1
Activity (HCT-116 [3]): Active
Activity (HCT-116 [4]): Active
Activity (HCT-116 [5]): Active
Activity (HCT-116 [6]): Active
Activity (HCT-116 [7]): Active
Activity (HCT-116 [8]): Active
Activity (HCT-116 [9]): inactive
Activity (HCT-116 [10]): Active

Structure (SMILES): CCOC(=O)c1csc(-c2csc(-c3csc([C@@H](N)Cc4ccccc4)n3)n2)n1
growth inhibition (GI) (HCT-116 [1]): inactive

Structure (SMILES): CCOC(=O)c1csc(-c2csc(-c3csc([C@H](Cc4ccccc4)NC(=O)OC(C)(C)C)n3)n2)n1
growth inhibition (GI) (HCT-116 [1]): inactive

Structure (SMILES): CCOC(=O)c1csc(-c2csc(-c3csc([C@@H]4Cc5ccccc5CN4C(=O)OC(C)(C)C)n3)n2)n1
growth inhibition (GI) (HCT-116 [1]): inactive

Structure (SMILES): CC(C)(C)OC(=O)N1Cc2ccccc2C[C@H]1c1nc(-c2nc(-c3nc(C(N)=O)cs3)cs2)cs1
growth inhibition (GI) (HCT-116 [1]): inactive

Structure (SMILES): CC(C)(C)OC(=O)N[C@@H](Cc1ccccc1)c1nc(-c2nc(-c3nc(C(N)=O)cs3)cs2)cs1
growth inhibition (GI) (HCT-116 [1]): inactive

GI50 (K562): < 1 nM
Structure (SMILES): Cc1nc(Nc2ncc(C(=O)Nc3c(C)cccc3Cl)s2)cc(N2CCN(CCO)CC2)n1 [DASATINIB]

Structure (SMILES): CC(C)(C)OC(=O)N[C@H](Cc1ccccc1)c1nc(-c2nc(-c3nc(C(N)=O)cs3)cs2)cs1
growth inhibition (GI) (HCT-116 [1]): inactive
